Experimental data reported in ChEMBL document CHEMBL4417631, “Oral peptide inhibitors of interleukin-23 receptor and their use to treat inflammatory bowel diseases” (2017).
*1 amine or outer side, *2 acyl side, *3 side chain or, on linkers, in order; H or OH if unused. Where a SMILES comes first, the peptide text is derived from it. Bridges are numbered along the chain shown (N, C = ends). [ ]: non-standard residue; d: D form. Abu(4-yl) = O=C([C@H](CC[*:3])N[*:1])[*:2]; 2Nal = N[C@@H](Cc1ccc2ccccc2c1)C(=O)O; AEF = NCCOc1ccc(C[C@H](N)C(=O)O)cc1; αMeK = C[C@](N)(CCCCN)C(=O)O; Aib = CC(C)(N)C(=O)O

Columns and labels:
Interleukin-23 receptor [1] = target: T1, Interleukin-23 receptor (Homo sapiens, UniProt Q5VWK5); experiment: Inhibition of interleukin-23 receptor in human DB cells assessed as reduction in IL-23-stimulated STAT3 phosphorylation incubated for 30 mins by HTRF assay; format: cell-based
T1 sequence (Q5VWK5 whole entry): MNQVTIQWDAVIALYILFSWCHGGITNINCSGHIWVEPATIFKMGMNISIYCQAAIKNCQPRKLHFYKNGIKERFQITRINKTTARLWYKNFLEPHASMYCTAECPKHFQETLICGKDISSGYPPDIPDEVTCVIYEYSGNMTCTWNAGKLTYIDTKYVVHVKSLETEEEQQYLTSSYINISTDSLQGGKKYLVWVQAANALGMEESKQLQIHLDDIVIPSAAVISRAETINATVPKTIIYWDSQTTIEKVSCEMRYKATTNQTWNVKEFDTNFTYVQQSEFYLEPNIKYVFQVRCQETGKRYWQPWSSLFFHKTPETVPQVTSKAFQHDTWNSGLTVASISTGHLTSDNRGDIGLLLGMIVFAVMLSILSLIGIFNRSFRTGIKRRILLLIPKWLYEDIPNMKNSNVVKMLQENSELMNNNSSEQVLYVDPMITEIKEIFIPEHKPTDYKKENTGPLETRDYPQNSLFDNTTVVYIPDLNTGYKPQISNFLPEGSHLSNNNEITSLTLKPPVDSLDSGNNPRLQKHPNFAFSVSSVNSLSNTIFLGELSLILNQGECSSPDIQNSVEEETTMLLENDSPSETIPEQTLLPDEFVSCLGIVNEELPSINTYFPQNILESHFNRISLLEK

[2] = Inhibition of interleukin-23 binding to rat interleukin-23 receptor incubated for 2 hrs by competitive binding ELISA
[3] = Half life in simulated gastric fluid at 20 uM by LC-MS/MS analysis; format: ADME
[4] = Half life in simulated intestinal fluid at 20 uM by LC-MS/MS analysis; format: ADME
Interleukin-23 receptor [5] = target: T1, Interleukin-23 receptor; experiment: Inhibition of interleukin-23 receptor in human natural killer cells assessed as reduction in IL23/IL18-induced IFNgamma production incubated for 20 to 24 hrs by ELISA; format: cell-based
Interleukin-23 receptor [6] = target: T1, Interleukin-23 receptor; experiment: Inhibition of interleukin-23 binding to human interleukin-23 receptor incubated for 2 hrs by competitive binding ELISA

Compound | IC50 (Interleukin-23 receptor [1]) [nM] | IC50 [2] [nM] | half-life at 20 µM [3] [h] | half-life at 20 µM [4] [h] | IC50 (Interleukin-23 receptor [5]) [nM] | IC50 (Interleukin-23 receptor [6]) [nM]
CC(=O)NCCCC[C@H](NC(=O)[C@@](C)(NC(=O)[C@H](Cc1ccc2ccccc2c1)NC(=O)[C@H](Cc1ccc(C(N)=O)cc1)NC(=O)[C@@H](NC(=O)[C@H](CCC(N)=O)NC(=O)[C@H](Cc1c[nH]c2ccccc12)NC(=O)[C@@H](NC(=O)[C@H](CCC(N)=O)NC(=O)[C@@H](NC(C)=O)C(C)(C)S)[C@@H](C)O)C(C)(C)S)C(C)C)C(=O)N[C@@H](CC(N)=O)C(=O)N[C@@H](CC(N)=O)C(N)=O | < 10 | 10 to 25 | 3 to 6 | > 6 | 10 to 25 | 
CC(=O)NCCCC[C@H](NC(=O)C(C)(C)NC(=O)[C@H](Cc1ccc2ccccc2c1)NC(=O)[C@H](Cc1ccc(OCCN)cc1)NC(=O)[C@@H](NC(=O)[C@H](CCC(N)=O)NC(=O)[C@H](Cc1c[nH]c2ccccc12)NC(=O)[C@@H](NC(=O)[C@H](CC(N)=O)NC(=O)[C@@H](NC(C)=O)C(C)(C)S)[C@@H](C)O)C(C)(C)S)C(=O)N[C@@H](CC(N)=O)C(=O)N[C@@H](CC(N)=O)C(N)=O | < 10 | < 10 | > 6 | > 6 | < 10 | < 10
CC(=O)N[C@H]1CCSC[C@@H](C(=O)N[C@@H](Cc2ccc(OCCN)cc2)C(=O)N[C@@H](Cc2ccc3ccccc3c2)C(=O)NC(C)(C)C(=O)N[C@@H](CCC(N)=O)C(=O)N[C@@H](CC(N)=O)C(=O)NCC(N)=O)NC(=O)[C@H](CCC(N)=O)NC(=O)[C@H](Cc2c[nH]c3ccccc23)NC(=O)[C@H]([C@@H](C)O)NC(=O)[C@H](CCC(N)=O)NC1=O (Ac-[Abu(4-yl)]QTWQC[AEF][2Nal][Aib]QNG-NH2; thioether 1-6) | < 10 | 10 to 25 | 3 to 6 | 2 to 3 | < 25 | < 10
CC(=O)N[C@H]1CCSC[C@@H](C(=O)N[C@@H](Cc2ccc(O)cc2)C(=O)N[C@@H](Cc2ccc3ccccc3c2)C(=O)N[C@@](C)(CC(C)C)C(=O)N[C@@H](CCC(=O)O)C(=O)N[C@@H](CC(N)=O)C(=O)NCC(N)=O)NC(=O)[C@H](CCC(N)=O)NC(=O)[C@H](Cc2c[nH]c3ccccc23)NC(=O)[C@H]([C@@H](C)O)NC(=O)[C@H](CCC(N)=O)NC1=O | < 10 | 10 to 25 |  | < 1 | < 25 | 10 to 25
CC(=O)N[C@H]1CCSC[C@@H](C(=O)N[C@@H](Cc2ccc(OCCN)cc2)C(=O)N[C@@H](Cc2ccc3ccccc3c2)C(=O)N[C@@](C)(CCCCN)C(=O)N[C@@H](CCC(=O)O)C(=O)N[C@@H](CC(N)=O)C(=O)N[C@@H](CCC(N)=O)C(N)=O)NC(=O)[C@H](CCC(N)=O)NC(=O)[C@H](Cc2c[nH]c3ccccc23)NC(=O)[C@H]([C@@H](C)O)NC(=O)[C@H](CCC(N)=O)NC1=O (Ac-[Abu(4-yl)]QTWQC[AEF][2Nal][αMeK]ENQ-NH2; thioether 1-6) | < 10 | < 10 | 3 to 6 | 3 to 6 | < 25 | < 10
CC(=O)NCCCC[C@H](NC(=O)C(C)(C)NC(=O)[C@H](Cc1ccc2ccccc2c1)NC(=O)[C@H](Cc1ccc(OCCN)cc1)NC(=O)[C@@H](NC(=O)[C@H](CCC(N)=O)NC(=O)[C@H](Cc1c[nH]c2ccccc12)NC(=O)[C@@H](NC(=O)[C@H](CC(N)=O)NC(=O)[C@@H](NC(C)=O)C(C)(C)S)[C@@H](C)O)C(C)(C)S)C(=O)N[C@@H](CC(N)=O)C(=O)NCCC(N)=O | < 10 | 10 to 25 | > 6 | > 6 | < 10 | 
CC(=O)N[C@H]1CCSC[C@@H](C(=O)N[C@@H](Cc2ccc(OCCN)cc2)C(=O)N[C@@H](Cc2ccc3ccccc3c2)C(=O)NC2(C(=O)N[C@@H](CCC(=O)O)C(=O)N[C@@H](CC(N)=O)C(=O)N[C@@H](CC(N)=O)C(N)=O)CCC2)NC(=O)[C@H](CCC(N)=O)NC(=O)[C@H](Cc2c[nH]c3ccccc23)NC(=O)[C@H]([C@@H](C)O)NC(=O)[C@H](CCC(N)=O)NC1=O | < 10 | < 10 | 1 to 2 | < 1 | < 25 | 
CC(=O)NCCCC[C@H](NC(=O)C(C)(C)NC(=O)[C@H](Cc1ccc2ccccc2c1)NC(=O)[C@H](Cc1ccc(OCCN)cc1)NC(=O)[C@@H]1CSCC[C@H](NC(C)=O)C(=O)N[C@@H](CCC(N)=O)C(=O)N[C@@H]([C@@H](C)O)C(=O)N[C@@H](Cc2c[nH]c3ccccc23)C(=O)N[C@@H](CCC(N)=O)C(=O)N1)C(=O)N[C@@H](CC(N)=O)C(=O)N[C@@H](C)C(N)=O | < 10 | 10 to 25 | < 1 | 1 to 2 | < 25 | < 10
CC(=O)NCCCC[C@H](NC(=O)[C@](C)(CC(C)C)NC(=O)[C@H](Cc1ccc2ccccc2c1)NC(=O)[C@H](Cc1ccc(OCCN)cc1)NC(=O)[C@@H](NC(=O)[C@H](CCC(N)=O)NC(=O)[C@H](Cc1c[nH]c2ccccc12)NC(=O)[C@@H](NC(=O)[C@H](CCC(N)=O)NC(=O)[C@@H](NC(C)=O)C(C)(C)S)[C@@H](C)O)C(C)(C)S)C(=O)N[C@@H](CC(N)=O)C(=O)N[C@@H](CC(N)=O)C(N)=O | < 10 | < 10 | 3 to 6 | 2 to 3 | < 10 | < 10
CC(=O)NCCCC[C@H](NC(=O)[C@](C)(CCCCNC(C)=O)NC(=O)[C@H](Cc1ccc2ccccc2c1)NC(=O)[C@H](Cc1ccc(OCCNC(C)=O)cc1)NC(=O)[C@@H]1CSCC[C@H](NC(C)=O)C(=O)N[C@@H](CCC(N)=O)C(=O)N[C@@H]([C@@H](C)O)C(=O)N[C@@H](Cc2c[nH]c3ccccc23)C(=O)N[C@@H](CCC(N)=O)C(=O)N1)C(=O)N[C@@H](CC(N)=O)C(=O)NCC(N)=O | < 10 | < 10 | < 1 | 3 to 6 | < 25 | < 10
CC(=O)N[C@H]1CCSC[C@@H](C(=O)N[C@@H](Cc2ccc(OCCN)cc2)C(=O)N[C@@H](Cc2ccc3ccccc3c2)C(=O)N[C@@](C)(CCCCN)C(=O)N[C@@H](CCCCNC(=O)CC(C)C)C(=O)N[C@@H](CC(N)=O)C(=O)NCC(N)=O)NC(=O)[C@H](CCC(N)=O)NC(=O)[C@H](Cc2c[nH]c3ccccc23)NC(=O)[C@H]([C@@H](C)O)NC(=O)[C@H](CCC(N)=O)NC1=O | < 10 | 10 to 25 | > 6 | > 6 | < 25 | < 10
CC(=O)NCCCC[C@H](NC(=O)[C@@](C)(NC(=O)[C@H](Cc1ccc2ccccc2c1)NC(=O)[C@H](Cc1ccc(OCCN)cc1)NC(=O)[C@@H]1CSCC[C@H](NC(C)=O)C(=O)N[C@@H](CCC(N)=O)C(=O)N[C@@H]([C@@H](C)O)C(=O)N[C@@H](Cc2c[nH]c3ccccc23)C(=O)N[C@@H](CCC(N)=O)C(=O)N1)C(C)C)C(=O)N[C@@H](CC(N)=O)C(=O)NCC(N)=O | < 10 | < 10 | 1 to 2 | 2 to 3 | < 25 | < 10
CC(=O)NCCCC[C@H](NC(=O)C(C)(C)NC(=O)[C@H](Cc1ccc2ccccc2c1)NC(=O)[C@H](Cc1ccc(C(N)=O)cc1)NC(=O)[C@@H](NC(=O)[C@H](CCC(N)=O)NC(=O)[C@H](Cc1c[nH]c2ccccc12)NC(=O)[C@@H](NC(=O)[C@H](CC(N)=O)NC(=O)[C@@H](NC(C)=O)C(C)(C)S)[C@@H](C)O)C(C)(C)S)C(=O)N[C@@H](CC(N)=O)C(=O)N[C@@H](CC(N)=O)C(N)=O |  |  | 3 to 6 | 1 to 2 | < 10 | 
